Holding throughout (test): Cysteine liganding, probe competition
What all share (type): binding

The target of one experiment is T1, UniProt Q9H000 (Homo sapiens, UniProt Q9H000).
T1 construct: Cells were resuspended in cold PBS on ice and sonicated with a probe sonicator to achieve lysis; endogenous in cells
To be noted: 100 uM. An excerpt:
(§1) The following 96-well sample prep protocol was used for sample preparation.

A further experiment has as its target T2, UniProt Q15366 (Homo sapiens, UniProt Q15366).
T2 construct: Cells were resuspended in cold PBS on ice and sonicated with a probe sonicator to achieve lysis; endogenous in cells
The settings on record: read-out: KB02_500 uM_percent_inhibition.
Text: as §1

Another experiment deals with T3, UniProt Q7L0R7 (Homo sapiens, UniProt Q7L0R7).
T3 construct: 200 μL of lysate containing 5 mg/ml proteome was treated with 2 μL of 100× compound stock; endogenous in cells
Text: as §1

A further experiment concerns the target T4, UniProt Q5U5Q3 (Homo sapiens, UniProt Q5U5Q3).
T4 construct: Cells were resuspended in cold PBS on ice and sonicated with a probe sonicator to achieve lysis; endogenous in cells
The settings on record: read-out: percent inhibition.
Text: as §1

The next experiment addresses T5, UniProt Q9BYV6 (Homo sapiens, UniProt Q9BYV6).
T5 construct: 200 μL of lysate containing 5 mg/ml proteome was treated with 2 μL of 100× compound stock; endogenous in cells
To be noted: read-out: KB02_500 uM_percent_inhibition.
Text: as §1

A further experiment addresses T6, UniProt P51948 (Homo sapiens, UniProt P51948).
T6 construct: Cells were resuspended in cold PBS on ice and sonicated with a probe sonicator to achieve lysis; endogenous in cells
The settings on record: read-out: percent inhibition.
Text: as §1

For a further experiment, the target named is T7, UniProt Q13114 (Homo sapiens, UniProt Q13114).
T7 construct: 200 μL of lysate containing 5 mg/ml proteome was treated with 2 μL of 100× compound stock; endogenous in cells
To be noted: read-out: percent_inhibition.
Text: as §1

A further experiment concerns the target T8, UniProt Q9NQ86 (Homo sapiens, UniProt Q9NQ86).
T8 construct: 200 μL of lysate containing 5 mg/ml proteome was treated with 2 μL of 100× compound stock; endogenous in cells
Text: as §1

A further experiment addresses T9, UniProt Q96PU5 (Homo sapiens, UniProt Q96PU5).
T9 construct: Cells were resuspended in cold PBS on ice and sonicated with a probe sonicator to achieve lysis; endogenous in cells
Text: as §1

In a further experiment the target is T10, UniProt Q9NRJ4 (Homo sapiens, UniProt Q9NRJ4).
T10 construct: 200 μL of lysate containing 5 mg/ml proteome was treated with 2 μL of 100× compound stock; endogenous in cells
To be noted: read-out: KB02_100 uM_percent_inhibition.
Text: as §1

The target of the next experiment is T11, UniProt Q6Q0C0 (Homo sapiens, UniProt Q6Q0C0).
T11 construct: 200 μL of lysate containing 5 mg/ml proteome was treated with 2 μL of 100× compound stock; endogenous in cells
T11 sequence (Q6Q0C0 1-670): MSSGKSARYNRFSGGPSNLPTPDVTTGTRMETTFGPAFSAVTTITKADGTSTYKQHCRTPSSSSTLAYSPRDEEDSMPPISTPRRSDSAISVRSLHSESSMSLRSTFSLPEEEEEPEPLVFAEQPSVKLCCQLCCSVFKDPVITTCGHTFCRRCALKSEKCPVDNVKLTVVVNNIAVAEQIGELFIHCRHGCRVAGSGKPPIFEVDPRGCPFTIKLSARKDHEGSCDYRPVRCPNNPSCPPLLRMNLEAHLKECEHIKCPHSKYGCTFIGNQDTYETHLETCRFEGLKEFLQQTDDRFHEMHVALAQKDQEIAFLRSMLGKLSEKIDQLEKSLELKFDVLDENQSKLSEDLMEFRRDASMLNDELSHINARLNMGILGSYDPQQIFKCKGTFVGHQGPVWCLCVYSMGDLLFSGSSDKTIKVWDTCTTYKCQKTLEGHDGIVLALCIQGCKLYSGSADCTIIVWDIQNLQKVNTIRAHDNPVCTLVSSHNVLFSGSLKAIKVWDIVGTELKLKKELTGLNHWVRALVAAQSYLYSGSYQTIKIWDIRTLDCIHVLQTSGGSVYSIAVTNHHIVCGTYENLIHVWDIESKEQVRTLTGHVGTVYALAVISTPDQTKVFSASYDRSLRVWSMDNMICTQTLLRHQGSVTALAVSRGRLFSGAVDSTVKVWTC
Text: as §1

For the next experiment, the target named is T12, UniProt Q86YT6 (Homo sapiens, UniProt Q86YT6).
T12 construct: Cells were resuspended in cold PBS on ice and sonicated with a probe sonicator to achieve lysis; endogenous in cells
To be noted: read-out: percent inhibition.
Text: as §1

The target of another experiment is T13, UniProt P19474 (Homo sapiens, UniProt P19474).
T13 construct: 200 μL of lysate containing 5 mg/ml proteome was treated with 2 μL of 100× compound stock; endogenous in cells
To be noted: read-out: KB05_100 uM_percent_inhibition.
Text: as §1

A further experiment has as its target T14, UniProt A8MQ27 (Homo sapiens, UniProt A8MQ27).
T14 construct: Cells were resuspended in cold PBS on ice and sonicated with a probe sonicator to achieve lysis; endogenous in cells
The settings on record: read-out: percent inhibition.
Text: as §1

The target of the next experiment is T15, UniProt Q6ZMN7 (Homo sapiens, UniProt Q6ZMN7).
T15 construct: 200 μL of lysate containing 5 mg/ml proteome was treated with 2 μL of 100× compound stock; endogenous in cells
To be noted: read-out: KB05_500 uM_percent_inhibition.
Text: as §1

Another experiment concerns the target T16, UniProt Q13356 (Homo sapiens, UniProt Q13356).
T16 construct: 200 μL of lysate containing 5 mg/ml proteome was treated with 2 μL of 100× compound stock; endogenous in cells
To be noted: read-out: KB05_500 uM_percent_inhibition.
Text: as §1

The target of the next experiment is T17, UniProt Q9HAT8 (Homo sapiens, UniProt Q9HAT8).
T17 construct: 200 μL of lysate containing 5 mg/ml proteome was treated with 2 μL of 100× compound stock; endogenous in cells
Text: as §1

A further experiment has as its target T18, UniProt Q149N8 (Homo sapiens, UniProt Q149N8).
T18 construct: 200 μL of lysate containing 5 mg/ml proteome was treated with 2 μL of 100× compound stock; endogenous in cells
To be noted: read-out: percent_inhibition.
Text: as §1

The target of the next experiment is T19, UniProt Q9NS56 (Homo sapiens, UniProt Q9NS56).
T19 construct: 200 μL of lysate containing 5 mg/ml proteome was treated with 2 μL of 100× compound stock; endogenous in cells
Text: as §1

Another experiment deals with T20, UniProt Q96AX9 (Homo sapiens, UniProt Q96AX9).
T20 construct: Cells were resuspended in cold PBS on ice and sonicated with a probe sonicator to achieve lysis; endogenous in cells
Text: as §1

In another experiment the target is T21, UniProt Q86XN8 (Homo sapiens, UniProt Q86XN8).
T21 construct: Cells were resuspended in cold PBS on ice and sonicated with a probe sonicator to achieve lysis; endogenous in cells
The settings on record: 100 uM.
Text: as §1

The next experiment concerns the target T22, UniProt P14373 (Homo sapiens, UniProt P14373).
T22 construct: 200 μL of lysate containing 5 mg/ml proteome was treated with 2 μL of 100× compound stock; endogenous in cells
The settings on record: 100 uM.
Text: as §1

For another experiment, the target named is T23, UniProt Q8NG27 (Homo sapiens, UniProt Q8NG27).
T23 construct: 200 μL of lysate containing 5 mg/ml proteome was treated with 2 μL of 100× compound stock; endogenous in cells
To be noted: 100 uM.
Text: as §1

The target in another experiment is T24, UniProt O75382 (Homo sapiens, UniProt O75382).
T24 construct: 200 μL of lysate containing 5 mg/ml proteome was treated with 2 μL of 100× compound stock; endogenous in cells
The settings on record: 100 uM.
Text: as §1

The mark [1] stands for this setting: 100 uM, read-out: KB02_100 uM_percent_inhibition.

Like-named read-outs stand apart in the source and are kept apart here.

T3 sequence (Q7L0R7 whole entry, change not shown): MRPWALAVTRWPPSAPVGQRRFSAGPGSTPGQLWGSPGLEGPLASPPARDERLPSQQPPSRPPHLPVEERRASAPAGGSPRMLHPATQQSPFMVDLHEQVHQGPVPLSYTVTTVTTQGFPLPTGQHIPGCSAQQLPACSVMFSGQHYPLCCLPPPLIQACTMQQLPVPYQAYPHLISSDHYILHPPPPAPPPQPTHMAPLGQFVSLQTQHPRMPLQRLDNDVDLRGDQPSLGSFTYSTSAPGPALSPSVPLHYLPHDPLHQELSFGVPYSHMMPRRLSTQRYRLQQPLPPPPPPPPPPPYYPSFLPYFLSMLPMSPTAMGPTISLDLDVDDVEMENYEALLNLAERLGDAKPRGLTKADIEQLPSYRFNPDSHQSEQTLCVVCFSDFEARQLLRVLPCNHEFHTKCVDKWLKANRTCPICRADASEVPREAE
T17 sequence (Q9HAT8 whole entry, change not shown): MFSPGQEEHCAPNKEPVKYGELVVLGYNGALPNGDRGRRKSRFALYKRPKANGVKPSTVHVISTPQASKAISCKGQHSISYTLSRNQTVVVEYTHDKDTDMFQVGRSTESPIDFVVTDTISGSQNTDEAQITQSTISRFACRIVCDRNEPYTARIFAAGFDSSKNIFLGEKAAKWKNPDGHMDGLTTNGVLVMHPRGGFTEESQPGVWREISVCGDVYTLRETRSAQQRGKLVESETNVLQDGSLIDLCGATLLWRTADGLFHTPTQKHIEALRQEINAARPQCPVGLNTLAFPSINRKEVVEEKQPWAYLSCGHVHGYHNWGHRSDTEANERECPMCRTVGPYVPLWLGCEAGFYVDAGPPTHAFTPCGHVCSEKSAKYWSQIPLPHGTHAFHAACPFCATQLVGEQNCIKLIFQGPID
T9 sequence (Q96PU5 whole entry, change not shown): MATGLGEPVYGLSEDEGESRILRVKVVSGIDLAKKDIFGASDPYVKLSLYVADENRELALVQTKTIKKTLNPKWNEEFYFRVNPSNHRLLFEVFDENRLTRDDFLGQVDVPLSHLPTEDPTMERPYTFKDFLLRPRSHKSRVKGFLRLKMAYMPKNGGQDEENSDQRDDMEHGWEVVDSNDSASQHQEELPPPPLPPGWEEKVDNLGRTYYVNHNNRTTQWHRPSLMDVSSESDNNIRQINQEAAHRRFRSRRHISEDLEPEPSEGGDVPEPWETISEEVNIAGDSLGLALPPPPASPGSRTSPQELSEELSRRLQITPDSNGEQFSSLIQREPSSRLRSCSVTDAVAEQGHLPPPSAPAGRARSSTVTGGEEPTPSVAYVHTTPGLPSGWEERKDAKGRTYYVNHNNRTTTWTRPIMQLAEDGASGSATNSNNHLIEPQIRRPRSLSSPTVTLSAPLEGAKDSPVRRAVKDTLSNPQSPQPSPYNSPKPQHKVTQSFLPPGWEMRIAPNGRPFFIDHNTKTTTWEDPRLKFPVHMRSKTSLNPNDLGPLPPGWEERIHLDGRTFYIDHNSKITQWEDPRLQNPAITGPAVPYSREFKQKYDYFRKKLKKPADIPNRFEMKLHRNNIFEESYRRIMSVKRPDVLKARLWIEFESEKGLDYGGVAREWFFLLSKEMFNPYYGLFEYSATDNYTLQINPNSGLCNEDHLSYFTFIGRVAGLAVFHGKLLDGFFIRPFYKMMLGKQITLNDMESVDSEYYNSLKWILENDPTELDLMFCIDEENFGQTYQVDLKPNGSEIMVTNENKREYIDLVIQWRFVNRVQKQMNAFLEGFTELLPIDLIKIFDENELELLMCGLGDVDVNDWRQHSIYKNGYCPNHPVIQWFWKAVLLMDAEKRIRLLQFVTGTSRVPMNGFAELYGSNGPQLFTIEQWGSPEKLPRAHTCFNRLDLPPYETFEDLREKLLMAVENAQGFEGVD
T20 sequence (Q96AX9 whole entry, change not shown): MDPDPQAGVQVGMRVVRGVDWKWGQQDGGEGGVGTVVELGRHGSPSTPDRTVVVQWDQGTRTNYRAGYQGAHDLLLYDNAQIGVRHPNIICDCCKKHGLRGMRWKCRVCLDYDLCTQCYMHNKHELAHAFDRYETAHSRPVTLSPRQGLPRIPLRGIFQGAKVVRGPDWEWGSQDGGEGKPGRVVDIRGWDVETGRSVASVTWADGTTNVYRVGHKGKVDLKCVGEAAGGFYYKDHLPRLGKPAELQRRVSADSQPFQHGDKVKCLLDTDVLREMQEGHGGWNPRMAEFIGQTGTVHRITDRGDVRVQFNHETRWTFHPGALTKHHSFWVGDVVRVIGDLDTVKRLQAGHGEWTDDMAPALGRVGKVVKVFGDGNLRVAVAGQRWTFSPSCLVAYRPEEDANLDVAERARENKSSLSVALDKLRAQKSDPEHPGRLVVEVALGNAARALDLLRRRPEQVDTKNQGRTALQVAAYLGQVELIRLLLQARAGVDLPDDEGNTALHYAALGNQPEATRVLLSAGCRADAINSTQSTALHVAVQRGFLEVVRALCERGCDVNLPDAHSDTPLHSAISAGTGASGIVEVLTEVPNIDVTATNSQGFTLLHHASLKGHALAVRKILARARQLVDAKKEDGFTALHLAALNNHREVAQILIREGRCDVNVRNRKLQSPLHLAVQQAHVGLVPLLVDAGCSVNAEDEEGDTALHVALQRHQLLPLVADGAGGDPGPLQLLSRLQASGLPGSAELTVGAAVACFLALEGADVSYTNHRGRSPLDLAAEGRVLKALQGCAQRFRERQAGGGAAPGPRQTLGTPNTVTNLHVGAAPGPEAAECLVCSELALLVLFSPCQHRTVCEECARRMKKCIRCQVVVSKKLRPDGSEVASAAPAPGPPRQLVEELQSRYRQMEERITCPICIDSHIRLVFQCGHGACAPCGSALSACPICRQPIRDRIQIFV
T19 sequence (Q9NS56 whole entry, change not shown): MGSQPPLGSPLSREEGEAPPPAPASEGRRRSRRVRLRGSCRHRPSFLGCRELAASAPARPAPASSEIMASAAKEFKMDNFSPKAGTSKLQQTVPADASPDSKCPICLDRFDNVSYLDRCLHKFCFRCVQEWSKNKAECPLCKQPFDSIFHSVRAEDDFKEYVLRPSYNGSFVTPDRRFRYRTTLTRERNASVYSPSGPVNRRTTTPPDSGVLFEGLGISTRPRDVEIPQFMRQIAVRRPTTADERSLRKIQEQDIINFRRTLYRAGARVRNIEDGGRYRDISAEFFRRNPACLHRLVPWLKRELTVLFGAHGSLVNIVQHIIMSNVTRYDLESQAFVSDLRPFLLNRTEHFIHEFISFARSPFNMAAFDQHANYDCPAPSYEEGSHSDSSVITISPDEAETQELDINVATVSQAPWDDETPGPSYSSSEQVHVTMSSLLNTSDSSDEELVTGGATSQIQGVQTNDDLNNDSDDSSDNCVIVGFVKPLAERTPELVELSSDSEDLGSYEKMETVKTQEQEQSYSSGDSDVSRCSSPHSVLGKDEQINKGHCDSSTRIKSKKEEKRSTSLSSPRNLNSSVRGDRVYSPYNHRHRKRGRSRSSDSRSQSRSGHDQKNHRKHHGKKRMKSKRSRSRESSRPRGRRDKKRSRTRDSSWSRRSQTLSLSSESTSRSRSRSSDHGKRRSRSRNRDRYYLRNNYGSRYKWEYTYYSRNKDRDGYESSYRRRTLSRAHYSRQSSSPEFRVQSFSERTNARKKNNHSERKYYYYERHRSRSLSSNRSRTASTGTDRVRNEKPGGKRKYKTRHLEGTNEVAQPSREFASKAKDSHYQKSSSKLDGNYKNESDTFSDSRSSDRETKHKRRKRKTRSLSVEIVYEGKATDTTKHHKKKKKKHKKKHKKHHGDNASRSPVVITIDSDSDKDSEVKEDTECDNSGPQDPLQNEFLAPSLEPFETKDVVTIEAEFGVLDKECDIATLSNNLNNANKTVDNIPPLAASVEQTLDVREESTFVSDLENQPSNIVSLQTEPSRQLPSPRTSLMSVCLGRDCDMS
T8 sequence (Q9NQ86 whole entry, change not shown): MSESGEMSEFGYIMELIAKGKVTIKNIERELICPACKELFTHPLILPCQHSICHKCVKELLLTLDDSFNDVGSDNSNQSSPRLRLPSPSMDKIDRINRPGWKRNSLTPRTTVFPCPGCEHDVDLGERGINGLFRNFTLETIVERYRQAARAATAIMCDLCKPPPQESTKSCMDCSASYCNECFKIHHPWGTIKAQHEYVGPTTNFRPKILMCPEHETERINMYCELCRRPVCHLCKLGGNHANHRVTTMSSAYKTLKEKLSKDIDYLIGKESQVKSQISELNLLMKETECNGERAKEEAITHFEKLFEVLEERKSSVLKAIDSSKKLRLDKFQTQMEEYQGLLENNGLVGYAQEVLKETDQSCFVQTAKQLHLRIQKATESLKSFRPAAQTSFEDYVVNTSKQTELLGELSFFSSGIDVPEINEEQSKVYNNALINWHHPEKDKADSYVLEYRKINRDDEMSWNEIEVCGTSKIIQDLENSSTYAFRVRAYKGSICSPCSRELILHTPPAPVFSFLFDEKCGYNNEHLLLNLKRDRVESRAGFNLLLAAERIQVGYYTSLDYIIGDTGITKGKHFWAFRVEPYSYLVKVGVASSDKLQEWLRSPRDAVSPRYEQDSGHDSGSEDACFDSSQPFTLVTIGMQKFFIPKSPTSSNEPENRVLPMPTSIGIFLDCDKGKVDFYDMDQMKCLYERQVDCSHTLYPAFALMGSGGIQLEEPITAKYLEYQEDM
T2 sequence (Q15366 whole entry, change not shown): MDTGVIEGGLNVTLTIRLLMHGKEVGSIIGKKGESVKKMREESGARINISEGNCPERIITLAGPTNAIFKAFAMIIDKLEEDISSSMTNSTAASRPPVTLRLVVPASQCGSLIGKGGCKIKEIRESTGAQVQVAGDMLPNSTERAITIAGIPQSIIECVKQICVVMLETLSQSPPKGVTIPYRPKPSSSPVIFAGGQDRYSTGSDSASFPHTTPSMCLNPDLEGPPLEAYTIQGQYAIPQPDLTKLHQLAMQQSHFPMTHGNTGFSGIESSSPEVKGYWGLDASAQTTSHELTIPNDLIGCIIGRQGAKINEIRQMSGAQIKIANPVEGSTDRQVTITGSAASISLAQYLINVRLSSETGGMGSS

Regarding `COc1ccc2c(c1)CCCN2C(=O)CCl` [KB02], the values for the percent inhibition on UniProt Q9H000 and at UniProt Q96PU5 (100 uM) were 24% and 33%, respectively. The inhibition at 500 µM at UniProt Q15366 was 45%; at UniProt Q7L0R7 (500 uM, read-out: percent_inhibition) it was 41%; on UniProt Q9BYV6, 1%; at UniProt Q6Q0C0 (500 uM, read-out: KB02_500 uM_percent_inhibition), 47%. The inhibition at 100 µM is 44% on UniProt Q7L0R7 (100 uM, read-out: percent_inhibition); 5% on UniProt Q5U5Q3; 3% at UniProt P51948; 33% on UniProt Q13114; 27% at UniProt Q9NQ86 (setting [1]); 30% on UniProt Q96PU5 (read-out: percent inhibition). The figures for the inhibition at 100 µM at UniProt Q9NRJ4, at UniProt Q6Q0C0 (setting [1]) and at UniProt Q6Q0C0 (read-out: percent_inhibition) were 28%, 3% and 1%, respectively. Also, the percent_inhibition on UniProt Q7L0R7 (500 uM) was 42%. On UniProt Q9NQ86 (500 uM), the “KB02_500 uM_percent_inhibition” value is listed as 88%.
As to `C=CC(=O)N(c1ccccc1)c1ccc(Br)cc1` [KB05], the inhibition at 100 µM at UniProt Q86YT6 came out at 31%; at UniProt P19474, 39%; at UniProt Q9HAT8 (100 uM, read-out: KB05_100 uM_percent_inhibition) it was 15%; at UniProt Q149N8 it was 41%; at UniProt Q9NS56 (read-out: percent_inhibition), 13%; on UniProt Q96AX9 (read-out: percent inhibition) it was 11%. Also, the inhibition at 500 µM is 44% at UniProt A8MQ27; 1% at UniProt Q6ZMN7; 69% at UniProt Q13356; 63% at UniProt Q9HAT8 (500 uM, read-out: KB05_500 uM_percent_inhibition). For the same compound, the percent_inhibition at UniProt Q9NS56 (100 uM) is listed as 11%. At UniProt Q96AX9 (100 uM), this compound returned a percent inhibition of 9%.
Turning to `O=C(CCl)Nc1cc(C(F)(F)F)cc(C(F)(F)F)c1` [KBO3], on UniProt Q86XN8, the percent inhibition is reported as 48%. Moreover, the “KB03_100 uM_percent_inhibition” value on UniProt P14373 came out at 13%; at UniProt Q8NG27, 16%; at UniProt O75382, 45%.

The values are drawn from US20200239530A1, “COMPOUNDS AND METHODS OF MODULATING PROTEIN DEGRADATION” (Vividion Therapeutics, Inc., priority 2017, published 2020).
